Laboratory results from PubChem BioAssay (NCI).
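Exposure lasted 48 hours, with cells grown in 96-well plates and compounds tested at five concentrations. Abbreviation: GI50, concentration required for 50% inhibition of growth. TGI: total growth inhibition.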

Tests used:
Assay in all cases: NCI-60 cell line screen, 48 h
NCI-H23 lung = system: NCI-H23 lung
HOP-92 NSCLC = system: HOP-92 NSCLC
SN12C renal = system: SN12C renal
ACHN renal = system: ACHN renal
SF-295 CNS = system: SF-295 CNS
OVCAR-3 ovarian = system: OVCAR-3 ovarian
BT-549 breast = system: BT-549 breast
UACC-257 melanoma = system: UACC-257 melanoma
UACC-62 melanoma = system: UACC-62 melanoma
IGROV1 ovarian = system: IGROV1 ovarian
DU-145 prostate = system: DU-145 prostate
HCT-15 colon = system: HCT-15 colon
OVCAR-4 ovarian = system: OVCAR-4 ovarian

| SMILES | TGI (NCI-H23 lung) [µM] | TGI (HOP-92 NSCLC) [µM] | TGI (SN12C renal) [µM] | TGI (ACHN renal) [µM] | TGI (SF-295 CNS) [µM] | TGI (OVCAR-3 ovarian) [µM] | TGI (BT-549 breast) [µM] | TGI (UACC-257 melanoma) [µM] | TGI (UACC-62 melanoma) [µM] | TGI (IGROV1 ovarian) [µM] | TGI (DU-145 prostate) [µM] | TGI (HCT-15 colon) [µM] | TGI (OVCAR-4 ovarian) [µM] | GI50 (DU-145 prostate) [µM] |
| --- | --- | --- | --- | --- | --- | --- | --- | --- | --- | --- | --- | --- | --- | --- |
| O=c1oc2ccccc2c(O)c1C(c1ccc2ccccc2c1)c1c(O)c2ccccc2oc1=O | 68.8 | > 100 | 45.3 | 41.7 | > 100 | > 100 | 60.8 | > 100 | > 100 | 90.3 | > 100 | 47.5 | > 100 |  |
| O=C(/C=C/c1c(O)c2ccccc2[nH]c1=O)CC(=O)C(=O)Nc1cccc(O)c1 | > 100 | > 100 | > 100 | > 100 | > 100 | > 100 | > 100 | > 100 | > 100 | > 100 | > 100 | > 100 | > 100 |  |
| COc1ccc(OC)c2c(=O)cc(-c3ccccc3)[nH]c12 | > 100 |  | > 100 | > 100 | > 100 | > 100 | > 100 | > 100 | > 100 | > 100 | > 100 | > 100 | > 100 |  |
| CC(=O)/C(=C/N1C(=O)CC(=O)NC1=S)C(=O)Nc1ccccc1C | > 100 | > 100 | > 100 | > 100 | > 100 | 96.4 | > 100 | > 100 | 83.8 | > 100 | > 100 | > 100 | > 100 |  |
| NC(=Nc1ccc(Cl)c(Cl)c1)c1ccccc1N | > 100 | 8.47 |  | > 100 | > 100 | > 100 | > 100 | 92.7 | > 100 | 97.9 | > 100 | > 100 | > 100 |  |
| CC1=CC[C@@]2(C)[C@@H]([C@@H]1C)[C@H]1CC[C@@H]3[C@@]4(C)CC[C@H](O)C(C)(C)[C@@H]4CC[C@@]3(C)[C@]1(C)C[C@@H]2O | > 55.1 | 53 | > 100 | 36 | 43.4 | 45.5 | > 64.3 | 34.8 | > 68.8 | 42.2 | 25.6 | > 71.6 | > 82.2 |  |
| Cc1ccc(-c2cnc(NC3OC(COC(=O)c4ccccc4)C(OC(=O)c4ccccc4)C(OC(=O)c4ccccc4)C3OC(=O)c3ccccc3)s2)cc1 (centres undefined) | > 100 | > 100 | > 100 | > 100 | > 100 | > 100 | > 100 | > 100 | > 100 | > 100 | > 100 | > 100 | > 100 |  |
| O=S(=O)([N-]c1nc2ccccc2nc1-[n+]1ccccc1)c1ccccc1 | > 100 | > 100 | > 100 | > 100 | > 100 | > 100 | > 100 | > 100 | > 100 | > 100 |  | > 100 | > 100 |  |
| COC(=O)C1=C(C(=O)OC)C(C(=O)c2ccccc2)N2N=C(c3ccc(Cl)cc3)C=CC12 (centres undefined) | > 100 | > 100 | > 100 | > 100 | > 100 | > 100 | 8.55 | > 100 | > 100 |  | > 100 | > 100 | > 100 |  |
| O=C1CC(n2cccc2)c2cc(Br)sc21 (centres undefined) | > 100 | > 100 | > 100 | > 100 | > 100 | > 100 | > 100 | > 100 | > 100 | > 100 | > 100 | > 100 | > 100 |  |
| COc1ccc(-c2cc(=O)c3c(O)c(OC)c(O)cc3o2)cc1O | > 100 | > 85.9 | > 100 | > 100 | > 100 | > 100 | > 85.5 | > 100 | 31.4 | 40.2 | > 100 | > 100 | > 100 |  |
| C/C(=C\c1csc(C)n1)[C@@H]1C[C@@H]2O[C@]2(C)CCC[C@H](C)[C@H](O)[C@@H](C)C(=O)C(C)(C)[C@@H](O)CC(=O)O1 (tested in a mixture with another compound) | > 1 | > 1 | > 1 | > 1 | 0.0369 | 0.0839 | > 1 | > 1 | > 1 | > 1 | 0.0682 | > 1 | > 1 | 0.00528 |
| Clc1cccc(Cl)c1C1SCc2nc3cc4ccccc4cc3n21 (centres undefined) | > 100 |  | > 100 | > 100 | > 100 | > 100 | > 100 | > 100 | > 100 | > 100 | > 100 | > 100 | > 100 |  |
| NC(=O)CC1(O)C=CC(=O)C=C1 | > 100 | > 100 | > 100 | > 100 | > 100 | > 100 | > 100 | > 100 | > 100 | > 100 | > 100 | > 100 | > 100 |  |
| Cc1nc2c(n1CCCl)C(=O)c1ccccc1C2=O | 92.2 | 72.1 | > 100 | > 100 | 62.6 | > 100 | 38.3 | 28.9 | 44.2 | 41.6 | > 100 | 40.9 | 29.7 |  |
| Cc1cc(C)n(C(=O)C(C)Sc2nnc(SC(C)C(=O)n3nc(C)cc3C)s2)n1 (centres undefined) | > 100 | > 100 |  | > 100 | > 100 | > 100 | > 100 | > 100 | > 100 | > 100 | > 100 | > 100 | > 100 |  |
| O=c1c2cc([N+](=O)[O-])cnc2sn1-c1ccc(Oc2ccccc2)cc1 | > 100 | 90.2 | > 100 | > 100 | > 100 | > 100 | > 100 | > 100 | > 100 | > 100 | > 100 | > 100 | > 100 |  |

| SMILES | TGI (NCI-H23 lung) [µM] | TGI (HOP-92 NSCLC) [µM] | TGI (SN12C renal) [µM] | TGI (ACHN renal) [µM] | TGI (SF-295 CNS) [µM] | TGI (OVCAR-3 ovarian) [µM] | TGI (BT-549 breast) [µM] | TGI (UACC-257 melanoma) [µM] | TGI (UACC-62 melanoma) [µM] | TGI (IGROV1 ovarian) [µM] | TGI (DU-145 prostate) [µM] | TGI (HCT-15 colon) [µM] | TGI (OVCAR-4 ovarian) [µM] | GI50 (DU-145 prostate) [µM] |
| --- | --- | --- | --- | --- | --- | --- | --- | --- | --- | --- | --- | --- | --- | --- |
| CC1=C(C#N)C(=O)N(/N=C/c2ccc(Cl)cc2)C(=O)/C1=c1\o/c(=C2/C(=O)N(/N=C/c3ccc(Cl)cc3)C(=O)C(C#N)=C2C)c2nccnc12 | > 100 | > 100 | > 100 | > 100 | > 100 | > 100 | > 100 | > 100 | > 100 | > 100 | > 100 | > 100 | > 100 |  |
| CNC(=O)C(C)NC(=O)C(Cc1ccccc1)NC(=O)OC(C)(C)C (centres undefined) | > 100 | > 100 | > 100 | > 100 | > 100 | > 100 | > 100 | > 100 | > 100 | > 100 | > 100 | > 100 |  |  |
| CCC/C(Cl)=N\OC(=O)Nc1ccc(Br)cc1 | 40.6 | 9.17 | 33.8 | 20.3 | 30.2 | 16.3 | 62.6 | 27 | 44.7 | 32.8 | 27.2 | 19.9 | 48.2 |  |
| COC(=O)CC1CN(C(=O)OCc2ccccc2)C(C)(C)O1 (centres undefined) | > 100 | > 100 | > 100 | > 100 | > 100 | > 100 | 66.9 | > 100 | > 100 | > 100 | > 100 | > 100 | > 100 |  |
| Cn1c(=S)[nH]c2c(Cl)cc(Cl)cc2c1=O | > 100 | > 100 | > 100 | > 100 | > 100 | > 100 | > 100 | > 100 | > 100 | > 100 | > 100 | > 100 | > 100 |  |
| CC(=O)NNc1nc(C)c(C(/C=C/c2ccccc2O)=N/NC(=O)c2ccncc2)s1 | > 100 | > 100 | > 100 | > 100 | > 100 | > 100 | > 100 | > 100 | > 100 | > 100 | > 100 | > 100 | > 100 |  |
| C=C1[C@H](OCC(C)C)[C@@H](OCC(C)C)[C@@H](O)C(C)(C)/C=C/[C@H](C)C(=O)[C@@]2(O)C[C@H](C)[C@H](O)[C@@H]2[C@H]1OCC(C)C | > 7.5 | > 7.5 | > 7.5 | > 7.5 | > 7.5 | > 7.5 | > 7.5 | > 7.5 | > 7.5 |  | > 7.5 | > 7.5 | > 7.5 |  |
| CC/C(=C/OC)P1(=O)OC(C)(C)CN1C(C)(C)C (centres undefined) | > 100 |  |  | > 100 | > 100 | > 100 | > 100 | > 100 | > 100 | > 100 | > 100 | > 100 | > 100 |  |
| CC1=C(C(=O)OC23CC4CC(CC(C4)C2)C3)C(c2ccccc2OC(F)F)C(C(=O)OC23CC4CC(CC(C4)C2)C3)=C(C)N1 (centres undefined) | > 100 | > 100 | > 100 |  | > 100 | > 100 | > 100 | > 100 | > 100 | > 100 | > 100 | > 100 | > 100 |  |
| CCOC(=O)Cc1nc2nn(Cc3ccccc3)cc2c(=O)[nH]1 | > 100 |  | > 100 | > 100 | > 100 | > 100 | > 100 | > 100 | > 100 | > 100 | > 100 | > 100 | > 100 |  |
| CC(=O)OCCC[C@@H]1C(=C(C)C)CCC2[C@@]1(C)CC[C@@]1(C)C[C@](C)(CCC=C(C)C)CC[C@]21C (some centres undefined) | > 100 |  | > 100 | > 100 | > 100 | > 100 | > 100 | > 100 | > 100 | > 100 | > 100 | > 100 | > 100 |  |
| O=C(n1[nH]c(=O)n(-c2ccc([N+](=O)[O-])cc2)c1=O)C(Cl)(Cl)Cl | > 75 |  | > 75 | > 75 | > 75 | > 75 | > 75 | > 75 | > 75 | > 75 | > 75 | > 75 | > 75 |  |
| C=CCNC(NCC=C)=C(C(Cl)=C(Cl)Cl)[N+](=O)[O-] | > 100 |  | > 100 | > 100 | > 100 | > 100 | 83.4 | > 100 | > 100 |  | > 100 | 32.9 | > 100 |  |
| C#CCOC(=O)C(N)CS (centres undefined) | > 100 | > 100 | > 100 | > 100 | > 100 | > 100 | > 100 | > 100 | > 100 | > 100 | > 100 |  |  |  |
| Cc1cc2c(cc1Cl)SC(NNC(=O)c1ccncc1)=NS2(=O)=O | > 10 |  | > 10 | > 10 | > 10 | > 10 | > 10 | > 10 | > 10 | > 10 | > 10 | > 10 | > 10 |  |
| CC(C)CC(NC(=O)OCc1ccccc1)C(=O)NCCCCC(N)C(=O)NC(CCCCNC(=O)C(CC(C)C)NC(=O)OCc1ccccc1)C(=O)NC(CCCCNC(=O)C(CC(C)C)NC(=O)OCc1ccccc1)C(=O)NC(CCCCNC(=O)C(CC(C)C)NC(=O)OCc1ccccc1)C(=O)NC(CCCCNC(=O)C(CC(C)C)NC(=O)OCc1ccccc1)C(=O)NC(CCCCNC(=O)C(CC(C)C)NC(=O)OCc1ccccc1)C(=O)O (centres undefined) | > 100 |  | > 100 | > 100 |  | > 100 | > 100 | > 100 | > 100 | > 100 | > 100 | > 100 | > 100 |  |
